Test results published in patent US20100184190A1, “Influencing viral lipid constituents” (priority 2006, published 2010).

Tested on: chicken embryo kidney (CEK) cells
Assay: FTIR microscopy of membrane phase transitions of treated CEK cell membranes
Format: cell-based
Details: treated versus control
Source text: The hydrophobic pocket of cyclodexrins has the ability to sequester cholesterol from membranes. When membrane cholesterol content was reduced by cyclodextrin treatment, as compared to the control of FIG. 1A, lipid mobility was reduced and the lipids found more ordered, as shown in FIG. 1B.

Row | Substance | change of membrane lipid order / melting groups (FTIR)
1 | cyclodextrin | significant increase in about 45 °C melting lipid ordered groups
2 | sphingomyelinase | significant reduction in the lower melting groups and a large increase in more ordered high melting membrane lipid groups
